This assay addresses T1, KCNQ2/3 channels (Homo sapiens, UniProt O43525+O43526).
T1 construct: expressed in transfected cells
The assay can be described thus: Fluorescence assay using a voltage sensitive dye (fluorimetry). Type of assay: cell-based. The note with it: CHO-K1 cells expressing KCNQ2/3; for Emax: CHO-K1, plateau effect relative to saturated retigabine (50 μM) = 100%, negative values = antagonistic, read-out: Fluorimetry % efficacy (retigabine = 100%); for EC50: IC50 where % efficacy is negative, read-out: Fluorimetry EC50/IC50.

SMILES strings stand for the structures.

T1 sequence (O43526 whole entry): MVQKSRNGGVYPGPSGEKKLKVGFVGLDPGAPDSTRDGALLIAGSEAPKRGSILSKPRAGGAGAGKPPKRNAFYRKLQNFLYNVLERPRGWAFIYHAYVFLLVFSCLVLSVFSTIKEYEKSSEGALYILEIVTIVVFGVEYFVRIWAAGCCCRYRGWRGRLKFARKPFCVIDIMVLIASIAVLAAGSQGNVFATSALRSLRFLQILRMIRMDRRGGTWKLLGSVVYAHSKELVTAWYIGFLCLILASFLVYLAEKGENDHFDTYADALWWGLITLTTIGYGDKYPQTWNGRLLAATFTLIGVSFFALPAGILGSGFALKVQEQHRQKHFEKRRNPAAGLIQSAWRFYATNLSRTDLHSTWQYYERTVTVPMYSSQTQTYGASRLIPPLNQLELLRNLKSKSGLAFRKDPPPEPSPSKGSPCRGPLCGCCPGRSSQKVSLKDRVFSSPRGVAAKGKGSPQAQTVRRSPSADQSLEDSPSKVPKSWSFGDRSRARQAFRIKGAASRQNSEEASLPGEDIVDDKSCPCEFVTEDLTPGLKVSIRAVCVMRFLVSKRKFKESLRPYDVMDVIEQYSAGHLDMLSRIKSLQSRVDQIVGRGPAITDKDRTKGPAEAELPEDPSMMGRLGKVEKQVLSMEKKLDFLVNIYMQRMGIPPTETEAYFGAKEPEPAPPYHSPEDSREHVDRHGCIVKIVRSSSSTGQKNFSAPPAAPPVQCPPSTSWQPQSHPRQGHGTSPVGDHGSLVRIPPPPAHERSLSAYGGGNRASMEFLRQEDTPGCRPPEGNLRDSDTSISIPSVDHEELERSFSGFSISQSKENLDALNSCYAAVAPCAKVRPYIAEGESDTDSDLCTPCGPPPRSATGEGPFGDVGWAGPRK
T1 sequence (O43525 whole entry): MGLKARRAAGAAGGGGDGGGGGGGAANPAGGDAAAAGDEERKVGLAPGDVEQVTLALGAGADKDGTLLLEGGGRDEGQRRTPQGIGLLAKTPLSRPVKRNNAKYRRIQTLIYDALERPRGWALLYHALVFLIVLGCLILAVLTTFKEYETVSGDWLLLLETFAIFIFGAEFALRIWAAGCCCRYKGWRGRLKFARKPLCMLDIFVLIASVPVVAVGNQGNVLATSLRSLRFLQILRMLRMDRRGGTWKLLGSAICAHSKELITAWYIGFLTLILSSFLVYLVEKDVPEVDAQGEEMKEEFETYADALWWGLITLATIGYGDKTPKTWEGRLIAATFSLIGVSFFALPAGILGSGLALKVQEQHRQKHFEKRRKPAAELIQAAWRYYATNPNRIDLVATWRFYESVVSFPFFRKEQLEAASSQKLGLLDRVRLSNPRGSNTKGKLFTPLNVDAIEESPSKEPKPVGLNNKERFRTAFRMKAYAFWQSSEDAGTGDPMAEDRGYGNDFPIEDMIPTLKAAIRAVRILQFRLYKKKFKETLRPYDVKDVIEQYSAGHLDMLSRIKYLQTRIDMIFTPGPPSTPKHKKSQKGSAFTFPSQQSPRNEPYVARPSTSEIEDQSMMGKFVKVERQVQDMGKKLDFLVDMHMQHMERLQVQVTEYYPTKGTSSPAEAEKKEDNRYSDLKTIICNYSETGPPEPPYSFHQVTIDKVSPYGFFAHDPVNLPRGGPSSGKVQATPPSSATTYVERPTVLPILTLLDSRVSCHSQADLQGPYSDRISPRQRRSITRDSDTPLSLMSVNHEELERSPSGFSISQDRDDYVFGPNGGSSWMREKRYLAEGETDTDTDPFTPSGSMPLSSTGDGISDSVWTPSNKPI

On to `Cc1cc(N2CCOC[C@H]2C)nc(N(C)C)c1C(=O)NCCCC(C)(C)C` [Example 183, 2-Dimethylamino-N-(4,4-dimethyl-pentyl)-4-methyl-6-[(3R)-3-methyl-morpholin-4-yl]-pyridine-3-carboxylic acid amide], for which the Emax was 221% and the EC50 worked out at 168 nM.

As for `CCN(C)c1nc(N2CCOC[C@H]2C)cc(C)c1C(=O)NCCCC(C)(C)C` [Example 184, N-(4,4-Dimethyl-pentyl)-2-(ethyl-methyl-amino)-4-methyl-6-[(3R)-3-methyl-morpholin-4-yl]-pyridine-3-carboxylic acid amide], the Emax turned out to be 228% and the EC50 is 221 nM.

Regarding `Cc1cc(N2CCOC[C@H]2C)nc(C(C)C)c1C(=O)NCCCC(C)(C)C` [Example 185, N-(4,4-Dimethyl-pentyl)-2-isopropyl-4-methyl-6-[(3R)-3-methyl-morpholin-4-yl]-pyridine-3-carboxylic acid amide], the Emax was 238% and the EC50 was determined as 15 nM.

As for `COc1nc(N2CCOC[C@H]2C)cc(C)c1C(=O)NCCCC(C)(C)C` [Example 186, N-(4,4-Dimethyl-pentyl)-2-methoxy-4-methyl-6-[(3R)-3-methyl-morpholin-4-yl]-pyridine-3-carboxylic acid amide], the Emax was 240% and the EC50 worked out at 63 nM.

On to `CCOc1nc(N2CCOC[C@H]2C)cc(C)c1C(=O)NCCCC(C)(C)C` [Example 187, N-(4,4-Dimethyl-pentyl)-2-ethoxy-4-methyl-6-[(3R)-3-methyl-morpholin-4-yl]-pyridine-3-carboxylic acid amide], for which the Emax worked out at 242% and the EC50 was found to be 49 nM.

For the compound `CCN(C)c1nc(N2CCOCC2)cc(C)c1C(=O)NCc1ccc(C(F)(F)F)cc1` [Example 188, 2-(Ethyl-methyl-amino)-4-methyl-6-morpholin-4-yl-N-[[4-(trifluoromethyl)-phenyl]-methyl]pyridine-3-carboxylic acid amide], the Emax was determined as 154% and the EC50 was 343 nM.

Turning to `CCN(C)c1nc(N2CCOCC2)cc(C)c1C(=O)NCCCC(C)(C)C` [Example 189, N-(4,4-Dimethyl-pentyl)-2-(ethyl-methyl-amino)-4-methyl-6-morpholin-4-yl-pyridine-3-carboxylic acid amide], the Emax worked out at 225% and the EC50 came out at 284 nM.

For `CCN(C)c1nc(N2CCOCC2)cc(C)c1C(=O)NCCCC(F)(F)F` [Example 190, 2-(Ethyl-methyl-amino)-4-methyl-6-morpholin-4-yl-N-(4,4,4-trifluoro-butyl)-pyridine-3-carboxylic acid amide], the Emax was found to be 207% and the EC50 worked out at 2500 nM.

Consider `CCN(C)c1nc(N2CCOCC2)cc(C)c1C(=O)NCc1ccc(Cl)cc1` [Example 191, N-[(4-Chlorophenyl)-methyl]-2-(ethyl-methyl-amino)-4-methyl-6-morpholin-4-yl-pyridine-3-carboxylic acid amide], for which the Emax was 214% and the EC50 turned out to be 265 nM.

Turning to `CSc1nc(N2CCOC[C@H]2C)cc(C)c1C(=O)NCCCC(C)(C)C` [Example 192, N-(4,4-Dimethyl-pentyl)-4-methyl-6-[(3R)-3-methyl-morpholin-4-yl]-2-methylsulfanyl-pyridine-3-carboxylic acid amide], the Emax was 236% and the EC50 was determined as 46 nM.

Regarding `CCSc1nc(N2CCOC[C@H]2C)cc(C)c1C(=O)NCCCC(C)(C)C` [Example 193, N-(4,4-Dimethyl-pentyl)-2-ethylsulfanyl-4-methyl-6-[(3R)-3-methyl-morpholin-4-yl]-pyridine-3-carboxylic acid amide], the Emax was determined as 246% and the EC50 amounted to 29 nM.

As to `CCC(C)c1nc(N2CCOC[C@H]2C)cc(C)c1C(=O)NCc1ccc(F)cc1` (stereo partly drawn) [Example 194, N-[(4-Fluorophenyl)-methyl]-4-methyl-6-[(3R)-3-methyl-morpholin-4-yl]-2-(1-methyl-propyl)-pyridine-3-carboxylic acid amide], the Emax was determined as 189% and the EC50 stood at 31 nM.

As for `CCC(C)c1nc(N2CCOC[C@H]2C)cc(C)c1C(=O)NCCCC(C)(C)C` (stereo partly drawn) [Example 195, N-(4,4-Dimethyl-pentyl)-4-methyl-6-[(3R)-3-methyl-morpholin-4-yl]-2-(1-methyl-propyl)-pyridine-3-carboxylic acid amide], the Emax worked out at 242% and the EC50 turned out to be 13 nM.

`Cc1cc(N2CCOC[C@H]2C)nc(C2CC2)c1C(=O)NCc1ccc(F)cc1` [Example 196, 2-Cyclopropyl-N-[(4-fluorophenyl)-methyl]-4-methyl-6-[(3R)-3-methyl-morpholin-4-yl]-pyridine-3-carboxylic acid amide]: the Emax turned out to be 197% and the EC50 turned out to be 103 nM.

As for `CCCc1nc(N2CCOC[C@H]2C)cc(C)c1C(=O)NCc1ccc(F)cc1` [Example 197, N-[(4-Fluorophenyl)-methyl]-4-methyl-6-[(3R)-3-methyl-morpholin-4-yl]-2-propyl-pyridine-3-carboxylic acid amide], the Emax came out at 211% and the EC50 worked out at 142 nM.

Regarding `Cc1cc(N2CCOC[C@H]2C)nc(C2CC2)c1C(=O)NCCCC(C)(C)C` [Example 198, 2-Cyclopropyl-N-(4,4-dimethyl-pentyl)-4-methyl-6-[(3R)-3-methyl-morpholin-4-yl]-pyridine-3-carboxylic acid amide], the Emax came out at 246% and the EC50 came to 19 nM.

On to `CCCc1nc(N2CCOC[C@H]2C)cc(C)c1C(=O)NCCCC(C)(C)C` [Example 199, N-(4,4-Dimethyl-pentyl)-4-methyl-6-[(3R)-3-methyl-morpholin-4-yl]-2-propyl-pyridine-3-carboxylic acid amide], for which the Emax was determined as 232% and the EC50 is 50 nM.

Take `CCSc1nc(N(C)c2ccncc2)cc(C)c1C(=O)NCc1cccc(F)c1` [Example 200, 2-Ethylsulfanyl-N-[(3-fluorophenyl)-methyl]-4-methyl-6-(methyl-pyridin-4-yl-amino)-pyridine-3-carboxylic acid amide]: the Emax stood at 22%.

Consider `CCSc1nc(N2CCOCC2)cc(C)c1C(=O)NCc1ccc(F)c(C)c1` [Example 201, 2-Ethylsulfanyl-N-[(4-fluoro-3-methyl-phenyl)-methyl]-4-methyl-6-morpholin-4-yl-pyridine-3-carboxylic acid amide], for which the Emax was found to be 127% and the EC50 came out at 135 nM.

Consider `CCSc1nc(N2CCOCC2)cc(C)c1C(=O)NCC(O)Cc1ccccc1` (centres unmarked) [Example 202, 2-Ethylsulfanyl-N-(2-hydroxy-3-phenyl-propyl)-4-methyl-6-morpholin-4-yl-pyridine-3-carboxylic acid amide], for which the Emax came out at 129% and the EC50 was 5990 nM.

As to `CCN(C)c1nc(N2CCOCC2)cc(C)c1C(=O)NCc1ccc(F)c(F)c1` [Example 203, N-[(3,4-Difluoro-phenyl)-methyl]-2-(ethyl-methyl-amino)-4-methyl-6-morpholin-4-yl-pyridine-3-carboxylic acid amide], the Emax is 220% and the EC50 stood at 219 nM.

For `CCN(C)c1nc(N2CCOCC2)cc(C)c1C(=O)NCc1cc(F)cc(F)c1` [Example 204, N-[(3,5-Difluoro-phenyl)-methyl]-2-(ethyl-methyl-amino)-4-methyl-6-morpholin-4-yl-pyridine-3-carboxylic acid amide], the Emax worked out at 239% and the EC50 was 141 nM.

Consider `Cc1cc(N2CCOCC2)nc(N(C)C)c1C(=O)NCc1ccc(F)cc1` [Example 205, 2-Dimethylamino-N-[(4-fluorophenyl)-methyl]-4-methyl-6-morpholin-4-yl-pyridine-3-carboxylic acid amide], for which the Emax came to 205% and the EC50 turned out to be 898 nM.

As for `Cc1cc(N2CCOCC2)nc(N(C)C)c1C(=O)NCc1ccc(F)c(F)c1` [Example 206, N-[(3,4-Difluoro-phenyl)-methyl]-2-dimethylamino-4-methyl-6-morpholin-4-yl-pyridine-3-carboxylic acid amide], the Emax is 207% and the EC50 is 402 nM.

For the compound `CCSc1nc(N2CCOC[C@H]2C)cc(C)c1C(=O)NCc1ccc(Cl)cc1` [Example 207, N-[(4-Chlorophenyl)-methyl]-2-ethylsulfanyl-4-methyl-6-[(3R)-3-methyl-morpholin-4-yl]-pyridine-3-carboxylic acid amide], the Emax is 183% and the EC50 worked out at 69 nM.

`CCSc1nc(N2CCOCC2)cc(C)c1C(=O)NCc1cc(C)cc(C)c1` [Example 208, N-[(3,5-Dimethyl-phenyl)-methyl]-2-ethylsulfanyl-4-methyl-6-morpholin-4-yl-pyridine-3-carboxylic acid amide]: the Emax is 61% and the EC50 was determined as 281 nM.

In the case of `CCCCCCCNC(=O)c1c(C)cc(N2CCOCC2)nc1SCC` [Example 209, 2-Ethylsulfanyl-N-heptyl-4-methyl-6-morpholin-4-yl-pyridine-3-carboxylic acid amide], the Emax was 192% and the EC50 came out at 234 nM.

As to `CCSc1nc(N(C)C)cc(C)c1C(=O)NCCCC(C)(C)C` [Example 210, 6-Dimethylamino-N-(4,4-dimethyl-pentyl)-2-ethylsulfanyl-4-methyl-pyridine-3-carboxylic acid amide], the Emax was found to be 223% and the EC50 was 187 nM.

As to `CCSc1nc(N(C)CCOC)cc(C)c1C(=O)NCCCC(C)(C)C` [Example 211, N-(4,4-Dimethyl-pentyl)-2-ethylsulfanyl-6-(2-methoxy-ethyl-methyl-amino)-4-methyl-pyridine-3-carboxylic acid amide], the Emax came out at 225% and the EC50 stood at 143 nM.

`CCSc1nc(N(C)CCCOC)cc(C)c1C(=O)NCCCC(C)(C)C` [Example 212, N-(4,4-Dimethyl-pentyl)-2-ethylsulfanyl-6-(3-methoxy-propyl-methyl-amino)-4-methyl-pyridine-3-carboxylic acid amide]: the Emax stood at 200% and the EC50 was 152 nM.

Values taken from patent publication US9168259B2 (GRÜNENTHAL GMBH, priority 2010, dated 2015).
